Measurements published in US6127360A, “Diamine derivatives and pharmaceutical containing the same” (Kowa Co., Ltd., priority 1997, dated 2000).
Counter-ions that a name gives are not always drawn.

Tests used:
[1] = target: T1, LTD4 receptor (Cavia porcellus, UniProt Q2NNR5); assay: LTD4 Receptor Binding Inhibition Test ([3H]LTD4, guinea pig pulmomembranous protein); settings: read-out: LTD4 receptor dissociation constant (KD)
T1 construct: guinea pig pulm-omembranous protein and a test compound; from tissue; host or cells: guinea pig lung membranes
T1 sequence (Q2NNR5 1-340): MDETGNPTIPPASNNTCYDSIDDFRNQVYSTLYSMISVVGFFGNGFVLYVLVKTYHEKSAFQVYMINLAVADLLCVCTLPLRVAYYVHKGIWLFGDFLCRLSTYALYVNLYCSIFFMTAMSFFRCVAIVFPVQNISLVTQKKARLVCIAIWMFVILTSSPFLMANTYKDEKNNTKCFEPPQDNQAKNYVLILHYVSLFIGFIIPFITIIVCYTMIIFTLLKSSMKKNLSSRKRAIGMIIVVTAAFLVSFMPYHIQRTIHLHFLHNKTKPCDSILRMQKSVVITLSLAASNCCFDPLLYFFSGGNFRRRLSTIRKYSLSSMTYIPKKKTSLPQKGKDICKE
Procedure: LTD4 Receptor Binding Inhibition Test
An ice-cold tris hydrochloride/sodium chloride buffer (10 mM/100 mM, pH 7.5) was added to terminate the reaction, followed by immediate filtration through a Wattman CF/C filter. The filter was washed twice with 20 ml aliquots of the ice-cold buffer. The radioactivity of the residue was measured by a liquid scintillation counter.
In a binding assay, […] LTD4 was used for the measurement of a nonspecific binding.

[2] = target: T2, H1 receptor (Cavia porcellus, UniProt P31389); assay: H1 Receptor Binding Inhibition Test ([3H]mepyramin, guinea pig cerebromembranous protein); settings: read-out: H1 receptor dissociation constant (KD)
T2 construct: guinea pig cerebromembranous protein and a test compound; from tissue; host or cells: guinea pig brain membranes
T2 sequence (P31389 whole entry): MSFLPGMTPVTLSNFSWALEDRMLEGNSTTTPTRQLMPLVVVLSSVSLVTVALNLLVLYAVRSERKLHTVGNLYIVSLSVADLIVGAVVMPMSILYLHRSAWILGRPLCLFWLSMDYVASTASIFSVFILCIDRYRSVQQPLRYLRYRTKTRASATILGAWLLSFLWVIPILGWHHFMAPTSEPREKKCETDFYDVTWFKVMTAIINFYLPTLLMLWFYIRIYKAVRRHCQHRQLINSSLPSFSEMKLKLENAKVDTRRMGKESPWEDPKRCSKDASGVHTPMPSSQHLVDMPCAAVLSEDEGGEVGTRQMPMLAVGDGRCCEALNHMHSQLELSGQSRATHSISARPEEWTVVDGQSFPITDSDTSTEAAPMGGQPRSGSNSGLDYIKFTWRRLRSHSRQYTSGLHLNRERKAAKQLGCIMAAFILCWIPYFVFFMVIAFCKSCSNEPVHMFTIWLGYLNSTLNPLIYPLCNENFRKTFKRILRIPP
Procedure: H1 Receptor Binding Inhibition Test
An ice-cold phosphate buffer was added to terminate the reaction, followed by immediate filtration through a Wattman CF/C filter. The filter was washed twice with 20 ml aliquots of the ice-cold buffer. The radio-activity of the residue was measured by a liquid scintillation counter. From a measurement value obtained without the addition of the test compound and measurements values obtained upon addition of the test compound at various concentrations, the dose-response of the inhibitory action of the test compound was measured and the 50% inhibitory concentration (IC50) was determined. Using the Cheng-Prusoff formula, a dissociation constant (KD) was calculated from the 50% inhibitory concentration (IC50).
In a binding assay, 10^4 M R(-)dimethindene was used for the measurement of a nonspecific binding.

[3] = target: T3, isolated guinea pig ileum (Cavia porcellus, UniProt Q2NNR5); assay: Anti-LTD4 action on isolated guinea pig ileum (LTD4 contraction); assay type: cell-based; settings: 10^-5 M test compound; contraction caused by 10^-8 M LTD4; read-out: Anti-LTD4 action (inhibition rate)
T3 construct: An isolated guinea pig ileum was cut into about 2 cm lengths; from tissue; host or cells: guinea pig ileum
T3 sequence (Q2NNR5 1-340): T1 sequence (Q2NNR5 1-340)
Procedure: Antihistaminic Action and Anti-LTD4 Action (In vitro Tests)
An isolated guinea pig ileum was cut into about 2 cm lengths. Each ileum piece was suspended in a 20-ml container filled with the Tyrode's buffer. An isotonic contractive response by histamine or LTD4 was recorded on a recorder. The Tyrode's buffer was controlled at 30° C., through which a mixed gas (95%O2 -5%CO2) was bubbled.

CC1(C)C(=O)Nc2cc(OCCCN3CCCN(Cc4ccc5ccccc5n4)CC3)ccc21 [Example 78, 3,3-Dimethyl-6-{3-[4-(2-quinolylmethyl)-1-homopiperazinyl]propoxy}-2,3-dihydro-1H-indol-2-one]
Ki [1]: 7.43 µM | Ki [2]: 18.2 nM | inhibition at 10 µM [3]: 27%

CC1(C)C(=O)Nc2c(OCCCN3CCCN(Cc4ccc5ccccc5n4)CC3)cccc21 [Example 69, 3,3-Dimethyl-7-{3-[4-(2-quinolylmethyl)-1-homopiperazinyl]propoxy}-2,3-dihydro-1H-indol-2-one]
inhibition at 10 µM [3]: 25%

CC1(C)C(=O)Nc2cccc(OCCCN3CCN(Cc4ccc5ccccc5n4)CC3)c21 [Example 41, 3,3-Dimethyl-4-{3-[4-(2-quinolylmethyl)-1-piperazinyl]propoxy}-2,3-dihydro-1H-indol-2-one]
Ki [1]: 3.83 µM | Ki [2]: 4.32 nM

Cc1ccc(OCCN2CCN(Cc3ccc4ccccc4n3)CC2)c2c1NC(=O)C2(C)C [Example 93, 3,3,7-Trimethyl-4-{2-[4-(2-quinolylmethyl)-1-piperazinyl]ethoxy}-2,3-dihydro-1H-indol-2-one]
Ki [1]: 5.9 µM | Ki [2]: 71 nM

Cc1ccc(OCCN2CCCN(Cc3ccc4ccccc4n3)CC2)c2c1NC(=O)C2(C)C [Example 54, 3,3,7-Trimethyl-4-{2-[4-(2-quinolylmethyl)-1-homopiperazinyl]ethoxy}-2,3-dihydro-1H-indol-2-one]
Ki [1]: 881 µM | Ki [2]: 0.249 nM

Cc1ccc(OCCCN2CCN(Cc3nc4ccccc4n3C)CC2)c2c1NC(=O)C2(C)C [Example 26, 3,3,7-Trimethyl-4-{3-[4-(N-methylbenzoimidazol-2-ylmethyl)-1-piperazinyl]propoxy}-2,3-dihydro-1H-indol-2-one]
Ki [1]: 3.34 µM | Ki [2]: 36.3 nM | inhibition at 10 µM [3]: 27%

O=C1CCc2ccc(OCCN3CCN(Cc4ccc5ccccc5n4)CC3)cc2N1 [Example 32, 7-{2-[4-(2-Quinolylmethyl)-1-piperazinyl]ethoxy}-1,2,3,4-tetrahydroquinolin-2-one]
inhibition at 10 µM [3]: 20%

Cn1c(CN2CCCN(CCOc3ccc4ccc(=O)[nH]c4c3)CC2)nc2ccccc21 [Example 80, 7-{2-[4-(N-Methylbenzoimidazol-2-ylmethyl)-1-homopiperazinyl]ethoxy)-1,2-dihydroquinolin-2-one]
Ki [1]: 18.4 µM | Ki [2]: 4.31 nM | inhibition at 10 µM [3]: 11%

CCOCCn1c(CN2CCCN(CCCOc3ccc4c(c3)SCC(=O)N4)CC2)nc2ccccc21 [Example 83, 7-{3-[4-(N-Ethoxyethylbenzoimidazol-2-ylmethyl)-1-homopiperazinyl]-propoxy}-3,4-dihydro-2H-1,4-benzothiazin-3-one]
inhibition at 10 µM [3]: 26%

Cn1c(CN2CCCN(CCOc3ccc4[nH]c(=O)ccc4c3)CC2)nc2ccccc21 [Example 77, 6-{2-[4-(N-Methylbenzoimidazol-2-ylmethyl)-1-homopiperazinyl]ethoxy}-1,2-dihydroquinolin-2-one]
Ki [1]: 110 µM | Ki [2]: 74.5 nM

Cn1c(CN2CCCN(CCOc3ccc4c(c3)CCC(=O)N4)CC2)nc2ccccc21 [Example 75, 6-{2-[4-(N-Methylbenzoimidazol-2-ylmethyl)-1-homopiperazinyl]ethoxy}-1,2,3,4-tetrahydroquinolin-2-one]
Ki [1]: 7.34 µM | Ki [2]: 55.8 nM

O=C1CCc2cccc(OCCCN3CCN(Cc4ccc5ccccc5n4)CC3)c2N1 [Example 45, 8-{3-[4-(2-Quinolylmethyl)-1-piperazinyl]propoxy)-1,2,3,4-tetrahydroquinolin-2-one]
Ki [1]: 1.98 µM | Ki [2]: 3.39 nM

CC1(C)C(=O)Nc2cccc(OCCCN3CCCN(Cc4ccc5ccccc5n4)CC3)c21 [Example 85, 3,3-Dimethyl-4-{3-[4-(2-quinolylmethyl)-1-homopiperazinyl]propoxy}-2,3-dihydro-1H-indol-2-one]
Ki [1]: 35.7 µM | Ki [2]: 18.3 nM | inhibition at 10 µM [3]: 21%

O=C1CCc2cccc(OCCCCN3CCN(Cc4ccc5ccccc5n4)CC3)c2N1 [Example 44, 8-{4-[4-(2-Quinolylmethyl)-1-piperazinyl]butoxy}-1,2,3,4-tetrahydroquinolin-2-one]
inhibition at 10 µM [3]: 47%

O=c1ccc2ccc(OCCCN3CCN(Cc4ccc5ccccc5n4)CC3)cc2[nH]1 [Example 36, 7-{3-[4-(2-Quinolylmethyl)-1-piperazinyl]propoxy}-1,2-dihydroquinolin-2-one]
Ki [1]: 1.99 µM | Ki [2]: 0.00349 nM | inhibition at 10 µM [3]: 46%

O=C1CCc2cccc(OCCCCN3CCCN(Cc4ccc5ccccc5n4)CC3)c2N1 [Example 89, 8-{4-[4-(2-Quinolylmethyl)-1-homopiperazinyl]butoxy}-1,2,3,4-tetrahydroquinolin-2-one]
inhibition at 10 µM [3]: 21%

O=C1CCc2ccc(OCCN3CCCN(Cc4ccc5ccccc5n4)CC3)cc2N1 [Example 81, 7-{2-[4-(2-Quinolylmethyl)-1-homopiperazinyl]ethoxy}-1,2,3,4-tetrahydroquinolin-2-one]
inhibition at 10 µM [3]: 19%

Cc1ccc(OCCCCCN2CCN(Cc3ccc4ccccc4n3)CC2)c2c1NC(=O)C2(C)C [Example 9, 3,3,7-Trimethyl-4-{5-[4-(2-quinolylmethyl)-1-piperazinyl]pentyloxy}-2,3-dihydro-1H-indol-2-one]
Ki [1]: 49.6 µM | Ki [2]: 13.5 nM | inhibition at 10 µM [3]: 40%

CC1(C)C(=O)Nc2ccc(OCCN3CCCN(Cc4ccc5ccccc5n4)CC3)cc21 [Example 50, 3,3-dimethyl-5-{2-[4-(2-quinolylmethyl)-1-homopiperazinyl]ethoxy}-2,3-dihydro-1H-indol-2-one dimaleate]
Ki [1]: 8.6 µM | Ki [2]: 457 nM

CC1(C)C(=O)Nc2cc(OCCCCCN3CCN(Cc4ccc5ccccc5n4)CC3)ccc21 [Example 42, 3,3-Dimethyl-6-{5-[4-(2-quinolylmethyl)-1-piperazinyl]pentyloxy}-2,3-dihydro-1H-indol-2-one]
inhibition at 10 µM [3]: 13%

Cc1ccc(OCCCN2CCCN(Cc3ccc4ccccc4n3)CC2)c2c1NC(=O)CC2 [Example 60, 8-Methyl-5-{3-[4-(2-quinolylmethyl)-1-homopiperazinyl]propoxy}-1,2,3,4-tetrahydroquinolin-2-one]
Ki [1]: 8.73 µM | Ki [2]: 5.45 nM

O=C1CSc2cc(OCCCN3CCN(C(=O)c4ccc5ccccc5n4)CC3)ccc2N1 [Example 102, 7-{3-[4-(2-quinolylcarbonyl)piperazinyl]propoxy}-3,4-dihydro-2H-1,4-benzothiazin-3-one maleate]
inhibition at 10 µM [3]: 10%

O=C1CCc2cccc(OCCCN3CCCN(Cc4ccc5ccccc5n4)CC3)c2N1 [Example 88, 8-{3-[4-(2-Quinolylmethyl)-1-homopiperazinyl]propoxy}-1,2,3,4-tetrahydroquinolin-2-one]
inhibition at 10 µM [3]: 12%

CC1(C)C(=O)Nc2c(OCCCN3CCN(Cc4ccc5ccccc5n4)CC3)cccc21 [Example 29, 3,3-Dimethyl-7-{3-[4-(2-quinolylmethyl)-1-piperazinyl]propoxy}-2,3-dihydro-1H-indol-2-one]
inhibition at 10 µM [3]: 48%

O=c1ccc2ccc(OCCN3CCN(Cc4ccc5ccccc5n4)CC3)cc2[nH]1 [Example 39, 7-{2-[4-(2-Quinolylmethyl)-1-piperazinyl]ethoxy}-1,2-dihydroquinolin-2-one]
inhibition at 10 µM [3]: 30%

Cc1ccc(OCCCN2CCCN(Cc3ccc4ccccc4n3)CC2)c2c1NC(=O)C2(C)C [Example 97, 3,3,7-Trimethyl-4-{3-[4-(2-quinolylmethyl)-1-homopiperazinyl]propoxy}-2,3-dihydro-1H-indol-2-one]
Ki [1]: 15.9 µM | Ki [2]: 187 nM
